Data on three compounds can be found in ChEMBL document CHEMBL1150975, “Biochemical and three-dimensional-structural study of the specific inhibition of protein kinase CK2 by [5-oxo-5,6-dihydroindolo-(1,2-a)quinazolin-7-yl]acetic acid (IQA)” (Biochem J, 2003).

Some results are limits rather than exact numbers.

The target of test [1] is T1, Serine/threonine-protein kinase Chk1 (Homo sapiens) (UniProt O14757).
T1 sequence (whole entry): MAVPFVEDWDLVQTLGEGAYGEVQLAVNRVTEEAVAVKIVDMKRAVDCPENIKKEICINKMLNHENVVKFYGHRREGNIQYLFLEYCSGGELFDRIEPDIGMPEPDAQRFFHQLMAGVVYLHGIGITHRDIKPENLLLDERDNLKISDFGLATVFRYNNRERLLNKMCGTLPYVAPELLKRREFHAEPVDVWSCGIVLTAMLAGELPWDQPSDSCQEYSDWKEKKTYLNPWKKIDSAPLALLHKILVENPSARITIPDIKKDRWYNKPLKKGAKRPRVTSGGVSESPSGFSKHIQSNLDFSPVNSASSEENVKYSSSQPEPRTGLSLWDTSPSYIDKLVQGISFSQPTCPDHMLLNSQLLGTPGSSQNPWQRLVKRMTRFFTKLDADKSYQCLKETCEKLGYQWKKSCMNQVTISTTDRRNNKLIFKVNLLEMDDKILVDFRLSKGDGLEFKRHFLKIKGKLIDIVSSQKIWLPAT
The test can be described thus: Percent residual CHK1 activity in the presence of 10uM inhibitor.

The target of test [2] is Tyrosine-protein kinase Lyn (Homo sapiens) (UniProt P07948). The test can be described thus: Percent residual Lyn activity in the presence of 10uM inhibitor.
In test [3] the target is RAF proto-oncogene serine/threonine-protein kinase (Homo sapiens) (UniProt P04049). The test can be described thus: Percent residual c-Raf-1 activity in the presence of 10uM inhibitor.
The target of test [4] is Fibroblast growth factor receptor 1 (Homo sapiens) (UniProt P11362). Description: Percent residual FGFR1 activity in the presence of 10uM inhibitor.
For test [5], the target named is T2, Dual specificity tyrosine-phosphorylation-regulated kinase 1A (Homo sapiens, UniProt Q13627). The test can be described thus: Inhibition of DYRK1a.
The target of test [6] is Tyrosine-protein kinase Fgr (Homo sapiens) (UniProt P09769). The test can be described thus: Percent residual c-Fgr activity in the presence of 10uM inhibitor.
Test [7] addresses Vascular endothelial growth factor receptor 2 (Homo sapiens) (UniProt P35968). Description: Percent residual KDR activity in the presence of 10uM inhibitor.
The target in test [8] is Mitogen-activated protein kinase 1 (Homo sapiens) (UniProt P28482). The test can be described thus: Percent residual ERK2 activity in the presence of 10uM inhibitor.
The target of test [9] is T3, cAMP-dependent protein kinase (PKA) (Homo sapiens, UniProt P22694+P17612+P22612). The test can be described thus: Percent residual PKA activity in the presence of 10uM inhibitor. In kind it is protein assay.
Test [10] has as its target Epidermal growth factor receptor (Homo sapiens) (UniProt P00533). Description: Percent residual Her-1 activity in the presence of 10uM inhibitor.
In test [11] the target is Phosphatidylinositol 4,5-bisphosphate 3-kinase catalytic subunit gamma isoform (Homo sapiens, UniProt P48736). Description: Inhibition of PI3K gamma.
The target of test [12] is T4, Mitogen-activated protein kinase 13 (Homo sapiens) (UniProt O15264).
T4 sequence (whole entry): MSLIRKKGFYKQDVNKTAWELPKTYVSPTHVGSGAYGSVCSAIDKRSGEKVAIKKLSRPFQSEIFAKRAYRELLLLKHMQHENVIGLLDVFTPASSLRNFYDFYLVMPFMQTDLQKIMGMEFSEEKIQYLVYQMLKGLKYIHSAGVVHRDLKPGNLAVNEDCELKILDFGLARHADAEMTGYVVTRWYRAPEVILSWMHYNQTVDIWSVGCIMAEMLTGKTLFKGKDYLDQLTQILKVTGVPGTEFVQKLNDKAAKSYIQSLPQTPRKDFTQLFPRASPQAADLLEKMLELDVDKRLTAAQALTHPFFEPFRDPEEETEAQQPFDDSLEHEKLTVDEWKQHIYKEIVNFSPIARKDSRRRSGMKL
Description: Percent residual p38delta activity in the presence of 10uM inhibitor.

For test [13], the target named is Ribosomal protein S6 kinase beta-1 (Homo sapiens) (UniProt P23443). The test can be described thus: Percent residual S6K1 activity in the presence of 10uM inhibitor.
For test [14], the target named is Angiopoietin-1 receptor (Homo sapiens) (UniProt Q02763). Description: Percent residual Tek activity in the presence of 10uM inhibitor.
Test [15] addresses T5, Tyrosine-protein kinase Lck (Homo sapiens, UniProt P06239). Description: Inhibition of Lck.
The target of test [16] is T2, Dual specificity tyrosine-phosphorylation-regulated kinase 1A. The test can be described thus: Percent residual DYRK1a activity in the presence of 10uM inhibitor.
Test [17] concerns the target Mast/stem cell growth factor receptor Kit (Homo sapiens) (UniProt P10721). The test can be described thus: Percent residual c-Kit activity in the presence of 10uM inhibitor.
Test [18] addresses Hepatocyte growth factor receptor (Homo sapiens) (UniProt P08581). Description: Percent residual c-Met activity in the presence of 10uM inhibitor.
The nature of test [19]: Inhibition of V66A-mutated CK2 holoenzyme. Also on record: species or system Zea mays.
The target in test [20] is T5, Tyrosine-protein kinase Lck. Description: Percent residual Lck activity in the presence of 10uM inhibitor.
Target sequence in this assay (P06239 2-509 limits assumed): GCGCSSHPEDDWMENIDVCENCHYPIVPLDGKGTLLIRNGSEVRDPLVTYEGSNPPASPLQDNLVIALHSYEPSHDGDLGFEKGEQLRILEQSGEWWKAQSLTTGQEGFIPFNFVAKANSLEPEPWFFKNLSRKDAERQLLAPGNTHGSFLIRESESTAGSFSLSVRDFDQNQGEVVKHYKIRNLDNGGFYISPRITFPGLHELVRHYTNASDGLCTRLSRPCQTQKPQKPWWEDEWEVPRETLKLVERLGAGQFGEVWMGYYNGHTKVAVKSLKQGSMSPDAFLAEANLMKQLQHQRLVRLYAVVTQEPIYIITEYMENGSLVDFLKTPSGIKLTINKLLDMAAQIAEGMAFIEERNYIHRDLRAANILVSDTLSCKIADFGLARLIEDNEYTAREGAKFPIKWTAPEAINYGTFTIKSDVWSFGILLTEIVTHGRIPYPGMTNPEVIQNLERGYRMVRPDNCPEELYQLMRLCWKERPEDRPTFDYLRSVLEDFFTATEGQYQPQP
Test [21] addresses Tyrosine-protein kinase CSK (Homo sapiens) (UniProt P41240). The test can be described thus: Percent residual CSK activity in the presence of 10uM inhibitor.
Test [22] has as its target Tyrosine-protein kinase ABL1 (Homo sapiens) (UniProt P00519). Description: Percent residual Abl activity in the presence of 10uM inhibitor.
The target in test [23] is Vascular endothelial growth factor receptor 1 (Homo sapiens) (UniProt P17948). The test can be described thus: Percent residual Flt-1 activity in the presence of 10uM inhibitor.
Test [24] deals with Vascular endothelial growth factor receptor 3 (Homo sapiens) (UniProt P35916). The test can be described thus: Percent residual Flt-4 activity in the presence of 10uM inhibitor.
Test [25] deals with Insulin-like growth factor 1 receptor (Homo sapiens) (UniProt P08069). The test can be described thus: Percent residual IGF-1R activity in the presence of 10uM inhibitor.
Test [26] is described as follows: Inhibition of I174A-mutated CK2 holoenzyme. Also noted: species or system Zea mays.
In test [27] the target is Glycogen synthase kinase-3 beta (Homo sapiens, UniProt P49841). Description: Inhibition of GSK3-beta.
Test [28] addresses Receptor tyrosine-protein kinase erbB-2 (Homo sapiens) (UniProt P04626). Description: Percent residual Her-2 activity in the presence of 10uM inhibitor.
For test [29], the target named is Platelet-derived growth factor receptor beta (Homo sapiens) (UniProt P09619). The test can be described thus: Percent residual PDGFRbeta activity in the presence of 10uM inhibitor.
The target in test [30] is MAP kinase-activated protein kinase 2 (Homo sapiens) (UniProt P49137). Description: Percent residual MAPKAPK2 activity in the presence of 10uM inhibitor.
For test [31], the target named is Insulin receptor (Homo sapiens) (UniProt P06213). Description: Percent residual Ins-R activity in the presence of 10uM inhibitor.
Test [32] has as its target Protein kinase C alpha type (Homo sapiens) (UniProt P17252). Description: Percent residual PKCalpha activity in the presence of 10uM inhibitor.
In test [33] the target is T3, cAMP-dependent protein kinase (PKA). The test can be described thus: Inhibition of PKA. Format: protein assay.
For test [34], the target named is EKC/KEOPS complex subunit BUD32 (Saccharomyces cerevisiae S288c) (UniProt P53323). Description: Percent residual PiD261 activity in the presence of 10uM inhibitor.
Test [35] addresses Receptor-type tyrosine-protein kinase FLT3 (Homo sapiens) (UniProt P36888). The test can be described thus: Percent residual Flt-3 activity in the presence of 10uM inhibitor.

Sequence of Tyrosine-protein kinase Fgr (Homo sapiens) (P09769 2-529 limits assumed): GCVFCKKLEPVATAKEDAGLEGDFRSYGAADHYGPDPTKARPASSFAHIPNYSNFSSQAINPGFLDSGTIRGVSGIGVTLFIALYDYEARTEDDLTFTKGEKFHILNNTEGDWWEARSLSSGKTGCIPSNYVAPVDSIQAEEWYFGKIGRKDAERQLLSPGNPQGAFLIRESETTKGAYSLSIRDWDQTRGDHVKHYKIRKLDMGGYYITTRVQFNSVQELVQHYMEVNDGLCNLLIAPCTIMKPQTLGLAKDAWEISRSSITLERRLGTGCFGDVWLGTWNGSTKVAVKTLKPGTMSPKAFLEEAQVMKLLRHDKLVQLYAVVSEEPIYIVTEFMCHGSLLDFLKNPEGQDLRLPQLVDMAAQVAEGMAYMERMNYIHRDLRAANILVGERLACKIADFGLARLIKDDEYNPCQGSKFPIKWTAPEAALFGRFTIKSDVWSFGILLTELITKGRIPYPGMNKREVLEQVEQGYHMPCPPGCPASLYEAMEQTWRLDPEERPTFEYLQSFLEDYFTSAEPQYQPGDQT
Sequence of Ribosomal protein S6 kinase beta-1 (Homo sapiens) (P23443 whole entry, looked up): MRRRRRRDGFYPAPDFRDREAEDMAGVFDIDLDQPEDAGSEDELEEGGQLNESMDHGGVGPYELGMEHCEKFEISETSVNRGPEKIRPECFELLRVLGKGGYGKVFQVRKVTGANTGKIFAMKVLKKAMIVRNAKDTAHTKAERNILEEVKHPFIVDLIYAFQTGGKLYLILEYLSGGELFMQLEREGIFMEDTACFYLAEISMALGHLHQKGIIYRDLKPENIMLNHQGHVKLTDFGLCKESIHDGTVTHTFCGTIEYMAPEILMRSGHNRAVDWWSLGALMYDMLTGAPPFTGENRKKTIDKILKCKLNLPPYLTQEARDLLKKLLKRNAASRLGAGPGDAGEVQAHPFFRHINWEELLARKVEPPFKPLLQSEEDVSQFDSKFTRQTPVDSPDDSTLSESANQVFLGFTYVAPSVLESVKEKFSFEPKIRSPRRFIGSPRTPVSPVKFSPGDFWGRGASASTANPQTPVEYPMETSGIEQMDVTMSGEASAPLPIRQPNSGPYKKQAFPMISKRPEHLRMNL
Sequence of Tyrosine-protein kinase CSK (Homo sapiens) (P41240 2-450 limits assumed): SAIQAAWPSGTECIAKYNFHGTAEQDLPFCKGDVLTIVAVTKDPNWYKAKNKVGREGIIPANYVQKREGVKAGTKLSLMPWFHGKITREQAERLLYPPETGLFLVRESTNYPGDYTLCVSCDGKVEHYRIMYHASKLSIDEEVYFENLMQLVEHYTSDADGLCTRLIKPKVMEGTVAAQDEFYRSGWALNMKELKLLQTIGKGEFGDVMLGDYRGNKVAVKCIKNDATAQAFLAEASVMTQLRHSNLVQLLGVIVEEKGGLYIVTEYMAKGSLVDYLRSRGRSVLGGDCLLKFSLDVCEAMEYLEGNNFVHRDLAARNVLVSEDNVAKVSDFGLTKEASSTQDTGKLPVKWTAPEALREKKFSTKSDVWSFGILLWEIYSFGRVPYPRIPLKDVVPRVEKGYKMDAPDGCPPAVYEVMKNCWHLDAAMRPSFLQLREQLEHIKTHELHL
Sequence of Mitogen-activated protein kinase 1 (Homo sapiens) (P28482 whole entry): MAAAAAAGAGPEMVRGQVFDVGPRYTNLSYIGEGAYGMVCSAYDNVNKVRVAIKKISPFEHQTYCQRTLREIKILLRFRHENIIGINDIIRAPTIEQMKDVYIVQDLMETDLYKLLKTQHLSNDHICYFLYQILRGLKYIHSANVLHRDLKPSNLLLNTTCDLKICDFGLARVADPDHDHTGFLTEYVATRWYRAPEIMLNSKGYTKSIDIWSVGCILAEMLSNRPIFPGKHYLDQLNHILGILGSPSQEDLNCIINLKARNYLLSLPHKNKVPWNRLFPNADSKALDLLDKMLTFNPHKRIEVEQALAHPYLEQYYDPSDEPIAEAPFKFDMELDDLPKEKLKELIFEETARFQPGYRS
Sequence of Tyrosine-protein kinase Lyn (Homo sapiens) (P07948 2-512 limits assumed): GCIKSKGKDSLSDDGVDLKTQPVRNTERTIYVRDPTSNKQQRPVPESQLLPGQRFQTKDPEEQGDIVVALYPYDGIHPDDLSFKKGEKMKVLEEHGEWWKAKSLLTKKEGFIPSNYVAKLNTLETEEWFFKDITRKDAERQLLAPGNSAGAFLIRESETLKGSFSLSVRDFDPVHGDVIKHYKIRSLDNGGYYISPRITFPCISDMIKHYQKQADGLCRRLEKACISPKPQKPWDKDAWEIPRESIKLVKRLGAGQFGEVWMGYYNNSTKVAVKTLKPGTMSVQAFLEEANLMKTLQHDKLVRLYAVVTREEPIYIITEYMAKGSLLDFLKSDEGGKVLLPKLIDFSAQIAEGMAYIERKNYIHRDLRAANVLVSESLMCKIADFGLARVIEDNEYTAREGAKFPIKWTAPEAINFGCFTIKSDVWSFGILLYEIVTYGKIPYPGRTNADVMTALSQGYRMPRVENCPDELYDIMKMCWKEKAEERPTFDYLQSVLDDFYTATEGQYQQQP
Sequence of MAP kinase-activated protein kinase 2 (Homo sapiens) (P49137 whole entry, looked up): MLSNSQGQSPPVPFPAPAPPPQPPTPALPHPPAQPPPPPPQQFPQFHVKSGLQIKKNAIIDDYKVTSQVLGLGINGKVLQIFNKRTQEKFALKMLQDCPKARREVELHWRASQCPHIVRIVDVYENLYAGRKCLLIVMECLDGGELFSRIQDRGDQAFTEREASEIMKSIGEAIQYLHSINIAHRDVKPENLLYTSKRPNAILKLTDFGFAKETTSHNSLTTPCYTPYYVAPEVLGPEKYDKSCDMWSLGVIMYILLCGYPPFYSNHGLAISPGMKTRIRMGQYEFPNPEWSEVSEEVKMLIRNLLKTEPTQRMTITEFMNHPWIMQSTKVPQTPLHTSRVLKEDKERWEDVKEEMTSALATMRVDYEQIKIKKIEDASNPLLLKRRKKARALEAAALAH
Sequence of EKC/KEOPS complex subunit BUD32 (Saccharomyces cerevisiae S288c) (P53323 whole entry, one chain of several): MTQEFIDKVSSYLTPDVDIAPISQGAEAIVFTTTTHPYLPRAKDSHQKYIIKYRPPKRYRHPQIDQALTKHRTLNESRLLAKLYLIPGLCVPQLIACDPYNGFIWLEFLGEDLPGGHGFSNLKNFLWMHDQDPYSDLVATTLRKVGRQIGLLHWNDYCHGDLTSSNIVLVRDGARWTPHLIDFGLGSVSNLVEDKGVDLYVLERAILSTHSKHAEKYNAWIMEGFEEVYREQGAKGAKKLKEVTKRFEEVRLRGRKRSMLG
Sequence of RAF proto-oncogene serine/threonine-protein kinase (Homo sapiens) (P04049 whole entry): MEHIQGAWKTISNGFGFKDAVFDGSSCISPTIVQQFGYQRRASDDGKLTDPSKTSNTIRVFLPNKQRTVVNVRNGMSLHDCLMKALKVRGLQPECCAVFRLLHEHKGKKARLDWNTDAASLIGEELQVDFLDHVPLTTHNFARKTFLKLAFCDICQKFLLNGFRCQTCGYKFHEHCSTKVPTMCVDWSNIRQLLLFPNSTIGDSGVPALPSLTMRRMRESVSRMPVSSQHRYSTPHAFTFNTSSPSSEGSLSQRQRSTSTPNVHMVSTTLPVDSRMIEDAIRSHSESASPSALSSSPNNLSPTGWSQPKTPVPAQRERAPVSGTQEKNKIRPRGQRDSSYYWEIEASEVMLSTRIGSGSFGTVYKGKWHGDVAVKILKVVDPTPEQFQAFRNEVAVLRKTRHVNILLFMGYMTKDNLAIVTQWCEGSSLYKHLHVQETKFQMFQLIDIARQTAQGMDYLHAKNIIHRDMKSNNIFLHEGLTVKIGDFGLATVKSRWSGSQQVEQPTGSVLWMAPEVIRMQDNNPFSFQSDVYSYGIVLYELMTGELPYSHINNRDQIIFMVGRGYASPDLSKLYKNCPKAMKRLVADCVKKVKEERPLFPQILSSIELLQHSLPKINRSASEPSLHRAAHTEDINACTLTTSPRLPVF

On to `O=C(O)Cc1c2ccccc2n2c1[nH]c(=O)c1ccccc12`, for which the Activity in test [1] turned out to be 90%; in test [2], 93%; in [3], 80%; in test [4] it was 80%; in test [6], 91%; in [7], 80%. Also, the Activity in test [8] came out at 92%; in test [9], 66%; in test [10], 80%; in test [12], 100%; in [13], 84%; in [14], 80%. For the same compound, the Activity in test [16] came to 50%; in test [17], 80%; in test [18], 80%; in test [20] it was 52%; in test [21] it was 82%; in test [22], 80%. In addition, the Activity in test [23] is 80%; in test [24], 80%; in test [25], 80%; in test [28], 80%; in test [29], 80%; in [30], 70%. Further, the Activity in test [31] was 80%; in [32], 107%; in test [34], 100%; in [35], 80%. Also, the IC50 in [5] is 8 µM; in [11] it was over 200 µM; in test [15], 11 µM; in [19] it was 27 µM; in [26], 11 µM; in test [27] it was 14 µM. The same compound displayed an IC50 in test [33] of 16 µM.
Take `O=c1cc(-c2ccc(O)cc2)oc2cc(O)cc(O)c12` [APIGENIN]: the Activity worked out at 67% in [1]; 88% in test [2]; 48% in test [6]; 83% in test [8]; 87% in [9]; 89% in [12]. Further, the Activity in test [13] was found to be 65%; in test [16], 20%; in test [20], 45%; in [21] it was 77%; in [30], 91%; in [32] it was 100%. Also, in test [34], the Activity was 103%. The IC50 in test [19] was 10 µM; in test [26], 4.29 µM.
As for `Cc1cc(O)c2c(c1)C(=O)c1cc(O)cc(O)c1C2=O` [EMODIN], the Activity was 89% in [1]; 90% in test [2]; 99% in test [6]; 88% in test [8]; 94% in [9]; 100% in test [12]. In addition, the Activity was determined as 84% in test [13]; 29% in test [16]; 79% in test [20]; 109% in test [21]; 82% in [30]; 71% in [32]. For the same compound, in test [34], the Activity amounted to 90%. For the same compound, the IC50 worked out at 38 µM in [19] and 7.3 µM in test [26].

For orientation: IC50 means the midpoint of a concentration-inhibition curve. A higher IC50 goes with a need for much substance.
